# System: Pseudomonas aeruginosa PA CRM-9027
# Assay: Broth microdilution, PA CRM-9027 (ear-eye infections)
# Assay type: cell-based, Pseudomonas aeruginosa (CRM-9027)
# Settings: PA CRM-9027
# Experimental: Bacteria strains involved in lung infection in cystic fibrosis patients (PA-BAA 2110) and ear-eye infections (PA-CRM 9027) are treated with exemplary variant peptides, such as E1AM2 and Q19L.
# Examination of the potency of modified short peptides against PA and SA strains was performed by using the broth microdilution protocol from the Clinical and Laboratory Standards Institute (CLSI) guidelines (CLSI 2012) as described. Briefly, five freshly plated bacteria colonies were grown in cation adjusted MH2 broth (BD Biosciences) in a shaker incubator at 37° C., 220 RPM. Cells were grown to an optical density (OD600) of ~0.2 measured using a Microplate Spectrophotometer (Molecular Devices Spectra Max Plus). 100 μL of microbial culture containing ~5×10^5 CFU/mL of bacteria in the respective broths were introduced into each well containing 100 μL of peptides and incubated overnight at 37° C. Next, to check the bactericidal effects, 100 μL from each well was transferred and spread on sterile MH2 agar plates. The plates were incubated overnight at 37° C. and the number of colonies forming units (CFU) were calculated the following day. Readings of bacteria grown in media without any treatments were normalized to 100% as media control. For the mixed infection study, three freshly plated bacteria colonies each from PA, SA and ST plates were grown together in cation adjusted MH2 broth and proceeded as described above.
substance,measurement,value
"E1AM2: untagged (E1AM2), KKLLKKWVKLSKKALKLAQSL",MBC,3.125 µM
same,MIC,3.125 µM

# From US20260327263A1, “Anti-Bacterial Peptides” (priority 2023, published 2026)
